Drawing on PubChem BioAssay (NCI), this text covers GI50 and TGI for 14 molecules.

Values joined by “and” are separate entries in the source; they are usually repeats but may differ in a detail not shown here. Identical values can stand only once.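 Compound exposure: 48 hours, 5 concentrations, 96-well plates. GI50: concentration for 50% inhibition of growth. Definition used: TGI = concentration required for complete inhibition of growth.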 Bounds are passed on as bounds.

Some test systems named below: 786-0 renal; ACHN renal; HCC-2998 colon; HOP-62 NSCLC; IGROV1 ovarian; NCI-H522 lung; OVCAR-3 ovarian; RXF 393 renal; SNB-75 CNS; T-47D breast.
Common to all, as to test: inhibition of tumour cell growth, NCI panel, 48 h

In the case of `CC(=O)c1cccc(-c2cccc(-c3ccn(CCN4CCOCC4)n3)c2)c1`, the GI50 in the assay with 786-0 renal, with ACHN renal, with HCC-2998 colon, in the assay on HOP-62 NSCLC, in the assay with IGROV1 ovarian and in the assay on NCI-H522 lung was over 20 µM in each case. For the same molecule, the GI50 is over 20 µM with OVCAR-3 ovarian, over 20 µM in the assay on RXF 393 renal, over 20 µM in the assay on SNB-75 CNS and 17.4 µM with T-47D breast. Besides, the TGI in the assay with 786-0 renal, in the assay on ACHN renal, with HCC-2998 colon, in the assay on HOP-62 NSCLC, with IGROV1 ovarian and in the assay on NCI-H522 lung was over 20 µM each time. Moreover, the TGI in the assay with OVCAR-3 ovarian, in the assay on RXF 393 renal, in the assay on SNB-75 CNS and with T-47D breast was over 20 µM each time.

For `Nc1cc2[nH]cnc2c(=O)[nH]1`, the TGI is over 300 µM in the assay on 786-0 renal; over 300 µM in the assay with ACHN renal; over 300 µM in the assay on HCC-2998 colon; over 191 µM in the assay on HOP-62 NSCLC; over 300 µM in the assay with IGROV1 ovarian; over 215 µM with NCI-H522 lung. For the same molecule, the TGI with OVCAR-3 ovarian is 92.4 µM; with RXF 393 renal it was over 300 µM; with SNB-75 CNS, over 300 µM; in the assay on T-47D breast, over 300 µM.

For the molecule `CC(C(=O)O)c1ccc(-c2ccccc2)c(F)c1` (stereo not given), the TGI with 786-0 renal, in the assay on ACHN renal, with HCC-2998 colon, in the assay on HOP-62 NSCLC, in the assay on IGROV1 ovarian and with NCI-H522 lung was over 100 µM throughout. The TGI with OVCAR-3 ovarian, with RXF 393 renal, in the assay on SNB-75 CNS and in the assay on T-47D breast was over 100 µM in each case.

As for `N=c1ccc2nc3c(cc(N)c4ccccc43)oc-2c1`, the GI50 with 786-0 renal was 1.07 µM; in the assay on ACHN renal it was 0.325 µM; in the assay on HCC-2998 colon it was 0.38 µM; in the assay with HOP-62 NSCLC, 0.267 µM; with IGROV1 ovarian, 0.18 µM; with NCI-H522 lung, 0.19 µM. The GI50 was 0.0265 µM with OVCAR-3 ovarian, 0.71 µM in the assay with RXF 393 renal, 0.191 µM in the assay on SNB-75 CNS and 1.09 µM in the assay on T-47D breast. Moreover, the TGI in the assay on 786-0 renal came to 2.3 µM; in the assay with ACHN renal it was 1.44 µM; with HCC-2998 colon it was 1.31 µM; in the assay on HOP-62 NSCLC it was 0.798 µM; with IGROV1 ovarian it was 0.643 µM; in the assay with NCI-H522 lung it was 0.501 µM. For the same molecule, the TGI with OVCAR-3 ovarian was determined as 0.0834 µM; in the assay on RXF 393 renal, 2.32 µM; in the assay with SNB-75 CNS it was 0.654 µM; in the assay with T-47D breast, 2.79 µM.

Regarding `C[C@]12CC[C@H]3[C@@H](CC[C@]4(O)C[C@@H](O)CC[C@]34CO)[C@@]1(O)CC[C@@H]2C1=CC(=O)OC1`, the TGI in the assay with 786-0 renal was 11.7 µM; in the assay on ACHN renal it was 7.08 µM; with HCC-2998 colon, 67.9 µM; with HOP-62 NSCLC it was 3.89 µM; with IGROV1 ovarian, over 100 µM; in the assay with NCI-H522 lung, 4.94 µM. Further, the TGI is 3.21 µM in the assay with OVCAR-3 ovarian, 1.58 µM with RXF 393 renal, 34.3 µM with SNB-75 CNS and 13.9 µM with T-47D breast.

As for `Cc1nn(CNc2ccccc2C(F)(F)F)c(=S)n1/N=C/c1ccc(F)cc1`, the GI50 in the assay on 786-0 renal, in the assay with ACHN renal, in the assay on HCC-2998 colon, with HOP-62 NSCLC, in the assay with IGROV1 ovarian and with NCI-H522 lung was over 100 µM in each case. For the same molecule, the GI50 in the assay with OVCAR-3 ovarian is over 100 µM; in the assay on RXF 393 renal, over 100 µM; with SNB-75 CNS, 29.5 µM; in the assay with T-47D breast, over 100 µM. In addition, the TGI in the assay with 786-0 renal, in the assay on ACHN renal, with HCC-2998 colon, with HOP-62 NSCLC, in the assay with IGROV1 ovarian and in the assay with NCI-H522 lung was over 100 µM in each case. The TGI in the assay with OVCAR-3 ovarian was over 100 µM; in the assay with RXF 393 renal it was over 100 µM; in the assay with SNB-75 CNS it was 91.3 µM; in the assay on T-47D breast, over 100 µM.

As to `Clc1ccc2ns[s+]c2c1`, the TGI with 786-0 renal is over 100 µM; in the assay on ACHN renal it was over 94.3 µM; with HCC-2998 colon it was over 100 µM; in the assay on HOP-62 NSCLC, over 29.9 µM; with IGROV1 ovarian, over 100 µM; with NCI-H522 lung it was over 100 µM. The TGI is over 100 µM in the assay with OVCAR-3 ovarian, over 100 µM in the assay on RXF 393 renal, over 100 µM with SNB-75 CNS and 92 µM with T-47D breast.

`O=C(N/N=C/c1ccc(Cl)cc1)c1[nH]c2ccc(Cl)cc2c1-c1ccccc1`: the GI50 was 0.294 µM in the assay on 786-0 renal; 0.199 µM in the assay on ACHN renal; 0.326 µM in the assay on HCC-2998 colon; 0.494 µM with HOP-62 NSCLC; 0.0523 µM in the assay with IGROV1 ovarian; 0.0458 µM with NCI-H522 lung. Moreover, the GI50 was 0.0265 µM in the assay with OVCAR-3 ovarian, 0.123 µM with RXF 393 renal, 1.02 µM with SNB-75 CNS and 38.2 µM in the assay with T-47D breast. In addition, the TGI was over 34.7 µM with 786-0 renal; over 45.3 µM in the assay on ACHN renal; 15.5 µM in the assay with HCC-2998 colon; 36.4 µM in the assay on HOP-62 NSCLC; 12.1 µM in the assay on IGROV1 ovarian; 0.167 µM in the assay with NCI-H522 lung. Moreover, the TGI in the assay with OVCAR-3 ovarian was 0.0584 µM; in the assay with RXF 393 renal it was 1.51 µM; in the assay on SNB-75 CNS it was over 51.2 µM; in the assay on T-47D breast, over 100 µM.

On to `CNCCNc1nc2ccccc2c2c(=O)c3cc(OC)ccc3sc12`, for which the GI50 with 786-0 renal is 1.7 µM; with ACHN renal, 1.58 µM; in the assay with HCC-2998 colon it was 1.47 µM; in the assay on HOP-62 NSCLC it was 1.49 µM; with IGROV1 ovarian, 1.55 µM; in the assay with NCI-H522 lung, 1.73 µM. Further, the GI50 with OVCAR-3 ovarian is 1.84 µM; with RXF 393 renal it was 1.39 µM; with SNB-75 CNS, 1.28 µM; with T-47D breast, 1.71 µM. The TGI with 786-0 renal was determined as 3.18 µM; with ACHN renal, 2.93 µM; in the assay with HCC-2998 colon it was 2.9 µM; in the assay on HOP-62 NSCLC it was 3.22 µM; with IGROV1 ovarian, 3.04 µM; with NCI-H522 lung, 3.56 µM. The TGI in the assay with OVCAR-3 ovarian was determined as 3.43 µM; with RXF 393 renal, 2.7 µM; in the assay with SNB-75 CNS, 2.58 µM; in the assay with T-47D breast it was 3.66 µM.

With `COc1cc2c(c(OC)c1OC)-c1ccc(O)c(=O)cc1[C@@H](NC(C)=O)CC2`, the GI50 in the assay on 786-0 renal was 12.3 µM; in the assay with ACHN renal it was 5.61 µM; with HCC-2998 colon, 7.95 µM; in the assay with HOP-62 NSCLC, 10.7 µM; in the assay on IGROV1 ovarian it was 4.76 µM; in the assay with NCI-H522 lung, 4.64 µM. Further, the GI50 in the assay with OVCAR-3 ovarian was 4.35 µM; in the assay on RXF 393 renal, 14.6 µM; in the assay on SNB-75 CNS, 16.3 µM; with T-47D breast, 8.84 µM. Besides, the TGI was 62 µM and 92.1 µM in the assay on 786-0 renal; > 100 µM and 44.5 µM with ACHN renal; > 100 µM and 34.4 µM with HCC-2998 colon; > 100 µM and 65.9 µM in the assay on HOP-62 NSCLC; > 100 µM and 82.4 µM in the assay with IGROV1 ovarian; 90.8 µM and 36.4 µM with NCI-H522 lung. Further, the TGI in the assay with OVCAR-3 ovarian, in the assay on RXF 393 renal, in the assay on SNB-75 CNS and in the assay with T-47D breast was over 100 µM in each case.

For the molecule `COC(=O)[C@]1(C)CCC[C@@]2(C)[C@@H]3C[C@@H]4[C@H]5C[C@@]3(CC[C@@H]21)C[C@@]45C`, the TGI in the assay with 786-0 renal was 29.6 µM; with ACHN renal, 29.2 µM; with HCC-2998 colon, 31 µM; in the assay with HOP-62 NSCLC, 32.2 µM; in the assay with IGROV1 ovarian, 36 µM; in the assay with NCI-H522 lung, 32.9 µM. The TGI worked out at 32.7 µM in the assay on OVCAR-3 ovarian, 38.2 µM in the assay on RXF 393 renal, 31.5 µM in the assay on SNB-75 CNS and 62.2 µM in the assay on T-47D breast.

For `Clc1ccc2c(c1)C(N1CCNCC1)=Nc1ccccc1O2`, the GI50 with 786-0 renal was 1.49 µM; with ACHN renal it was 1.97 µM; in the assay with HCC-2998 colon, 1.58 µM; with HOP-62 NSCLC it was 2.01 µM; in the assay with IGROV1 ovarian, 2.89 µM; in the assay with NCI-H522 lung, 1.82 µM. The GI50 was 2.8 µM with OVCAR-3 ovarian, 1.22 µM in the assay on RXF 393 renal, 1.13 µM in the assay on SNB-75 CNS and 1.91 µM in the assay with T-47D breast. Also, the TGI in the assay on 786-0 renal was determined as 3.27 µM; with ACHN renal, 4.2 µM; with HCC-2998 colon, 2.92 µM; in the assay with HOP-62 NSCLC, 4.66 µM; in the assay with IGROV1 ovarian, 11.1 µM; in the assay on NCI-H522 lung it was 3.87 µM. In addition, the TGI in the assay on OVCAR-3 ovarian worked out at 10.4 µM; in the assay with RXF 393 renal it was 2.77 µM; with SNB-75 CNS, 2.79 µM; with T-47D breast, 4.58 µM.

In the case of `COc1cc(/C=C2\CN(C(=O)CCN3CCC(=NO)CC3)C/C(=C\c3cc(OC)c(OC)c(OC)c3)C2=O)cc(OC)c1OC`, the GI50 with 786-0 renal is 0.355 µM; in the assay on ACHN renal, 0.837 µM; in the assay on HCC-2998 colon, 0.34 µM; with HOP-62 NSCLC, 0.719 µM; in the assay with IGROV1 ovarian, 0.275 µM; in the assay on NCI-H522 lung it was 0.323 µM. The GI50 with OVCAR-3 ovarian is 0.391 µM; with RXF 393 renal, 0.354 µM; with SNB-75 CNS, 0.425 µM; with T-47D breast it was 0.803 µM. For the same molecule, the TGI in the assay with 786-0 renal was 1.14 µM; in the assay on ACHN renal, 2.51 µM; with HCC-2998 colon, 0.724 µM; with HOP-62 NSCLC, 2.39 µM; with IGROV1 ovarian, 0.793 µM; with NCI-H522 lung it was 1.34 µM. Further, the TGI in the assay with OVCAR-3 ovarian turned out to be 1.26 µM; in the assay with RXF 393 renal, 0.999 µM; in the assay with SNB-75 CNS, 2 µM; in the assay with T-47D breast it was 10.6 µM.

As to `Cn1cc(C2=C(c3cn(C)c4cc(N)ccc34)C(=O)NC2=O)c2ccccc21`, the GI50 is 3.42 µM in the assay on 786-0 renal; 2.59 µM with ACHN renal; 1.5 µM in the assay with HCC-2998 colon; 3.86 µM with HOP-62 NSCLC; 6.05 µM in the assay with IGROV1 ovarian; 1.36 µM in the assay on NCI-H522 lung. The GI50 with OVCAR-3 ovarian was 0.721 µM; in the assay on RXF 393 renal, 1.84 µM; in the assay on SNB-75 CNS it was 0.252 µM; in the assay on T-47D breast, 5.7 µM. The TGI is over 25 µM with 786-0 renal; 12.1 µM in the assay on ACHN renal; over 25 µM with HCC-2998 colon; over 25 µM in the assay on HOP-62 NSCLC; 17.6 µM with IGROV1 ovarian; 8.53 µM in the assay with NCI-H522 lung. Besides, the TGI in the assay with OVCAR-3 ovarian is over 12.2 µM; with RXF 393 renal, 7.59 µM; with SNB-75 CNS, 2.09 µM; with T-47D breast, over 21.6 µM.
